PubChem BioAssay (NCI)
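Step 1: Grow cells in 96-well plates. Step 2: Expose to compound for 48 hours at 5 concentrations. Step 3: Interpolate endpoints linearly; if unreached, use highest concentration. At the GI50, growth is halved. Definition used: TGI = concentration required for complete inhibition of growth.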

Assays:
Test in all cases: NCI tumour cell line growth inhibition, 48 h
NCI-H226 lung = system: NCI-H226 lung
SK-OV-3 ovarian = system: SK-OV-3 ovarian
OVCAR-3 ovarian = system: OVCAR-3 ovarian
UACC-62 melanoma = system: UACC-62 melanoma
U251 CNS = system: U251 CNS
NCI-H460 lung = system: NCI-H460 lung
NCI-H522 lung = system: NCI-H522 lung
OVCAR-8 ovarian = system: OVCAR-8 ovarian
HOP-62 NSCLC = system: HOP-62 NSCLC
M14 melanoma = system: M14 melanoma

Structure (SMILES)	GI50 (NCI-H226 lung) [µM]	TGI (NCI-H226 lung) [µM]	GI50 (SK-OV-3 ovarian) [µM]	TGI (SK-OV-3 ovarian) [µM]	TGI (OVCAR-3 ovarian) [µM]	GI50 (UACC-62 melanoma) [µM]	TGI (UACC-62 melanoma) [µM]	GI50 (U251 CNS) [µM]	TGI (U251 CNS) [µM]	GI50 (NCI-H460 lung) [µM]	TGI (NCI-H460 lung) [µM]	GI50 (NCI-H522 lung) [µM]	TGI (NCI-H522 lung) [µM]	GI50 (OVCAR-8 ovarian) [µM]	TGI (OVCAR-8 ovarian) [µM]	GI50 (HOP-62 NSCLC) [µM]	TGI (HOP-62 NSCLC) [µM]	GI50 (M14 melanoma) [µM]	TGI (M14 melanoma) [µM]	GI50 (OVCAR-3 ovarian) [µM]
CC(C)(C)OC(=O)NCCCCCCCCn1c2c(c3ccccc3c1=O)C(=O)c1ccccc1-2	22.3	> 50	14.4	> 39.4	> 39.4	20.3	> 50	16.7	> 50	> 50	> 50	13.5	> 43.6	33.9	> 50	11.6	35	> 50	> 50	–
CCOC(OCC)C(CC)[Se]c1ccccc1[N+](=O)[O-] (stereo not drawn)	–	18.4	–	9.44	6.56	–	> 56.2	–	15.4	–	18.6	–	4.45	–	49.9	–	> 74.2	–	15.3	–
O=C([O-])c1ccc2c(c1)-c1nc-2nc2[n-]c(nc3nc(nc4[n-]c(n1)c1ccc(C(=O)[O-])cc41)-c1cc(C(=O)[O-])ccc1-3)c1ccc(C(=O)[O-])cc21.[Fe+2]	> 50	> 50	> 50	> 50	> 50	> 50	> 50	> 38.4	> 50	> 50	> 50	> 50	> 50	> 50	> 50	> 50	> 50	> 50	> 50	> 50
CN1CCN(c2ccc(-c3cnc4c(-c5csc6ccccc56)cnn4c3)cc2)CC1	13.5	> 15	> 15	> 15	6.59	> 15	> 15	4.38	> 15	2.14	4.41	8.15	> 15	5.7	> 15	8.37	> 15	5.01	> 15	3.02
O=C(Oc1ccc([N+](=O)[O-])cc1)N1CCN(Cc2cccc(Oc3ccccc3)c2)CC1	> 100	> 100	> 100	> 100	> 100	13.6	> 100	> 100	> 100	99.3	> 100	> 50.9	> 100	> 100	> 100	> 100	> 100	> 100	> 100	> 96.2
Cc1cc(=O)oc2cc(OC(=O)Nc3ccc(Cl)c(Cl)c3)ccc12	–	46.6	–	88.4	50.2	–	35.1	–	56.8	–	89.6	–	54.4	–	54.8	–	63.2	–	50.9	–
N#CC1C(=N)Cc2ccccc2-c2ccccc21 (stereo not drawn)	11.4	> 100	4.92	41.2	13	3.83	17.1	4.15	20.6	3.92	18.3	5.72	30.6	5.81	41.1	4.59	56.2	2.74	10.3	3.6
O=S(=O)(NC(=S)Nc1ccccc1)c1ccc(N2N=C3c4ccccc4CC3C2c2cccs2)cc1 (stereo not drawn)	27.2	55.4	49.5	> 100	46.9	18.5	37.3	26.2	76.7	24.6	> 100	32.8	> 100	39	> 100	20.3	45.7	22.7	46.3	17.2
CS(=O)(=O)N1CCN(Cc2cc3nc(-c4cccc5[nH]ncc45)nc(N4CCOCC4)c3s2)CC1 (tested in a mixture with another compound)	0.374	–	0.0559	0.328	0.586	0.105	0.706	0.213	–	0.0796	–	0.375	13	0.154	–	0.112	–	0.277	–	0.0615
COc1ccc(NC(=O)C(=O)NNC(=O)c2sc(NNC(C)=O)nc2C)c([N+](=O)[O-])c1	–	> 100	–	> 100	> 100	–	> 100	–	> 100	–	> 100	–	> 100	–	> 100	–	> 100	–	> 100	–
CC1CCCC(C(O)CC2CC(=O)N(c3ccccc3)C(=O)C2)C1=O (stereo not drawn)	–	> 100	–	> 100	> 100	–	> 100	–	> 100	–	> 100	–	> 100	–	> 100	–	> 100	–	> 100	–
O=C1C=CC(=O)C1(Br)Br	–	38.2	–	43.2	31.4	–	25.3	–	29.1	–	41.6	–	14.4	–	24.1	–	38.4	–	38.1	–
COc1ncc(-c2nc3c(n2C(C)C)[C@H](c2ccc(Cl)cc2)N(c2cc(Cl)cn(C)c2=O)C3=O)c(OC)n1	15.1	80.4	40.4	> 100	> 100	5.95	28.4	40.5	> 100	22.8	> 100	69.2	> 100	59.7	> 100	90	> 100	36.8	> 100	46
Cc1c(O)c(=O)ccn1C1OC(CO)C(O)C1O (stereo not drawn)	–	> 100	–	> 100	> 100	–	> 100	–	> 100	–	> 100	–	> 100	–	> 100	–	> 100	–	> 100	–
CC(CN)[C@@H]1CC[C@]2(CO)CC[C@]3(C)[C@H](CC[C@@H]4[C@@]5(C)CCC(NCCO)C(C)(C)[C@@H]5CC[C@]43C)[C@@H]12 (stereo partly drawn)	3.94	17.5	12.5	25.2	4.6	1.8	3.37	1.6	2.95	1.79	3.43	1.67	3.27	1.69	3.28	2	4.08	1.92	3.68	2.1
N#C/C(=C/c1cccnc1)C(=O)c1ccccc1	–	> 100	–	> 100	> 100	–	> 100	–	> 100	–	> 100	–	> 100	–	> 100	–	> 100	–	> 100	–
Nc1nc2ccc([C@@H]3Nc4ccc5[nH]ncc5c4[C@H]4[C@H]5CCC(C5)[C@H]43)cc2s1	1.91	5.54	1.73	3.63	1.25	1.51	3.05	1.18	11.5	0.81	2.32	1.38	3.4	2.35	16.7	1.14	2.9	0.654	2.62	0.366
COc1cc2c3c(n(CCCN)c(=O)c2cc1OC)-c1ccc(F)cc1C3=O	7.87	27.2	3.87	17.7	17.4	0.925	5.76	0.746	6.45	0.369	1.78	2.35	20.3	3.07	11.3	0.544	2.05	1.44	11.4	4.46
C/C(=N\NC(=O)CC(=O)Nc1ccc(Cl)cc1)c1cc2ccccc2oc1=O	–	> 100	–	> 100	> 100	–	> 100	–	> 100	–	> 100	–	> 100	–	> 100	–	> 100	–	> 100	–
CN(C)CCNC(=O)c1cccc2cc3ccccc3nc12	0.961	3.85	1.03	11	4.22	1.42	3.25	1.02	4.91	0.426	1.98	1.32	3.12	0.62	7.73	0.961	6.68	1.43	3.29	1.36
C=C1C(=O)O[C@H]2[C@H]1CC/C(COC(=O)C(=O)c1c[nH]c3ccc(OC)cc13)=C\CC[C@@]1(C)O[C@@H]21	5.84	9.99	19.8	35.1	3.42	3.21	7.49	7.06	10.8	10.2	24.8	5.34	9.31	6.88	19.4	6.49	11.9	5.18	10.4	1.87
CCCCCCCCOc1ccc(/C=N/Nc2cc(C)nc3ccc(Cl)cc23)cc1	1.7	3.62	1.65	3.1	3.82	1.87	3.49	1.82	3.39	2.01	3.87	1.89	3.86	2.14	4.84	1.48	3.09	1.75	3.51	2.17
CCCCCCCCCCCCCC/C(C(=O)OC)=C(/O)C(=O)OCC	–	> 100	–	> 100	> 100	–	65.1	–	69.4	–	> 100	–	> 100	–	> 100	–	> 100	–	37.4	–
Nc1nc2c(c3ncccc13)C(c1cccc(Cl)c1)Cc1ncccc1-2 (stereo not drawn)	19.6	43.2	2.69	23.2	4.88	0.628	16.6	2.17	15.4	3.03	22.6	0.417	2.82	3.95	37.5	2.45	18.1	1.23	12.7	1.11
N#Cc1c[nH]n2ccnc12	–	> 100	–	> 100	> 100	–	> 100	–	> 100	–	> 100	–	> 100	–	> 100	–	> 100	–	> 100	–
O=C1c2cccnc2-c2nc(/C=C/c3ccccc3)cc3c2c1nc1ccccc13	10.1	28	7.1	17	4.69	1.72	3.28	2.9	11.1	0.354	1.27	1.76	3.47	3.8	> 30	2.78	11.8	1.73	3.58	1.9
